{"source": "ChEMBL document CHEMBL4364273", "about": "“Discovery of SHR1653, a Highly Potent and Selective OTR Antagonist with Improved Blood-Brain Barrier Penetration” (ACS Med Chem Lett, 2019)", "key": {"Oxytocin receptor": {"molecular_target": "T1, Oxytocin receptor (Homo sapiens, UniProt P30559)", "T1 sequence (P30559 whole entry)": "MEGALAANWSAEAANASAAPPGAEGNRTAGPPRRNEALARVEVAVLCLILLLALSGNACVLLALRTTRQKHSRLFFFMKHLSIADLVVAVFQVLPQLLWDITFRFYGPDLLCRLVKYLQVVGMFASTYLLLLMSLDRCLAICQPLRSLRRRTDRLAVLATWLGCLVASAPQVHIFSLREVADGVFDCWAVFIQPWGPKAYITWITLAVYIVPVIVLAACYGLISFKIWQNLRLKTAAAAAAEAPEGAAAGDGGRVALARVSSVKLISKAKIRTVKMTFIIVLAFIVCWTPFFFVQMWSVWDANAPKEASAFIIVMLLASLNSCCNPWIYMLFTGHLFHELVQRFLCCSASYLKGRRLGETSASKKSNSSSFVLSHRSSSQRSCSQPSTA", "assay": "Antagonist activity at human OTR expressed in HEK293 cells assessed as decrease in calcium flux measured after 10 mins in […] by Fluo-4 dye based microplate reader based assay", "type": "functional, cell-based"}, "[1]": {"assay": "Cmax in Sprague-Dawley rat at 2 mg/kg, po measured for 24 hrs by LC-MS/MS analysis", "type": "ADME, organism-based", "set-up": "dose 2 mg/kg, route oral", "conditions": "in vivo"}, "[2]": {"assay": "Solubility of compound in FASSIF at pH 6.5", "type": "physicochemical"}, "[3]": {"assay": "Hepatic clearance in human liver microsomes by LC-MS/MS analysis", "type": "ADME, Microsome"}, "[4]": {"assay": "Hepatic clearance in dog liver microsomes by LC-MS/MS analysis", "type": "ADME, Canis lupus familiaris, Microsome"}, "[5]": {"molecular_target": "Voltage-gated inwardly rectifying potassium channel KCNH2 (Homo sapiens, UniProt Q12809)", "sequence (Q12809 whole entry)": "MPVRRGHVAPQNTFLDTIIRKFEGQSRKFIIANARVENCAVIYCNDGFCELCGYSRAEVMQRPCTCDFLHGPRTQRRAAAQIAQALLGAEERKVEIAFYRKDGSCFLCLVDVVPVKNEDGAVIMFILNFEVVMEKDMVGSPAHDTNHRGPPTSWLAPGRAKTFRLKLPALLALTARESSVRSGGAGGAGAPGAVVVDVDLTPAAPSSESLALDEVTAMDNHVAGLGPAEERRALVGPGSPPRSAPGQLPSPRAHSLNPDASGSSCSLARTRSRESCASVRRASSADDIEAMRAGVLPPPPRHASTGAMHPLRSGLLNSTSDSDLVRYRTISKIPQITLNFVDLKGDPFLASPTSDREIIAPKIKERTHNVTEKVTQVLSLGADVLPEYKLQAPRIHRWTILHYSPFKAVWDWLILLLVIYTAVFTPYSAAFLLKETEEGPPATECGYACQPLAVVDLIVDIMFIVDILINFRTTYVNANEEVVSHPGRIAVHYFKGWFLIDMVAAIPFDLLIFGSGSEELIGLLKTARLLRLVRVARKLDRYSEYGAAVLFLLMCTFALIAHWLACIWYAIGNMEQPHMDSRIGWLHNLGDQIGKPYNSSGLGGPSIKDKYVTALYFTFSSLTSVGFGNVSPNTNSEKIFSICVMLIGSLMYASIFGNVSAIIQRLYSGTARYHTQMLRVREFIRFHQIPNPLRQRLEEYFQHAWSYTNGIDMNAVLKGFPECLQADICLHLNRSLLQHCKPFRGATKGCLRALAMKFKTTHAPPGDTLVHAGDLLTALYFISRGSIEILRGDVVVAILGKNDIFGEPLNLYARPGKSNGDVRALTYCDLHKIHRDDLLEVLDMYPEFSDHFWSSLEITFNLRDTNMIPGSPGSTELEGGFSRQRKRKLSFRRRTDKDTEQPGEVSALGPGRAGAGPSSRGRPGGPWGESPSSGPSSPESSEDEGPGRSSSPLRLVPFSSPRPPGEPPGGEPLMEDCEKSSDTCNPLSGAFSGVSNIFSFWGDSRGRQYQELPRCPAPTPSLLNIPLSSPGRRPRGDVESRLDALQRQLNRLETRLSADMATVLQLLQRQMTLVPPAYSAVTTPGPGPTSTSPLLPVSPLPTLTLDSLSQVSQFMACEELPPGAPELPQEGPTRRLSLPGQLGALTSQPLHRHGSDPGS", "assay": "Inhibition of human ERG"}, "[6]": {"assay": "Acute toxicity in rat assessed as increase in urinary output at 900 mg/kg measured for 7 days", "type": "organism-based", "conditions": "in vivo, 168 h"}, "[7]": {"assay": "Acute toxicity in rat assessed as effect on hematological parameters up to 300 mg/kg measured for 7 days", "type": "organism-based", "conditions": "in vivo, 168 h"}, "Cytochrome P450 1A2": {"molecular_target": "T2, Cytochrome P450 1A2 (Homo sapiens, UniProt P05177)", "T2 sequence (P05177 whole entry)": "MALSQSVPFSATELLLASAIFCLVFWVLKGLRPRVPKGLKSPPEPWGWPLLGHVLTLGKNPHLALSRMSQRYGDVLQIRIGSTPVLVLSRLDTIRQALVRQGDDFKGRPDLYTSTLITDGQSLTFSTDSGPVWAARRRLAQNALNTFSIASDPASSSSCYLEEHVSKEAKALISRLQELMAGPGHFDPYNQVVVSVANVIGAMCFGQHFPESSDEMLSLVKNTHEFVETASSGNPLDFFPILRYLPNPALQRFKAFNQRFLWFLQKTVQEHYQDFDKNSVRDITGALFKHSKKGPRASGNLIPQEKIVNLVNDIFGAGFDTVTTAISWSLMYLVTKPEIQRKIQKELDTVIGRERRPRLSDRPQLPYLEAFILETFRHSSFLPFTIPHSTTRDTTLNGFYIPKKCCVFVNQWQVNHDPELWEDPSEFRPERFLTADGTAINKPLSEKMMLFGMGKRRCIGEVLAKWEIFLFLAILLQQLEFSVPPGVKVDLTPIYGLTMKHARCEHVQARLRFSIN", "assay": "Inhibition of human recombinant CYP1A2", "type": "ADME"}, "Cytochrome P450 2C9": {"molecular_target": "Cytochrome P450 2C9 (Homo sapiens, UniProt P11712)", "sequence (P11712 whole entry)": "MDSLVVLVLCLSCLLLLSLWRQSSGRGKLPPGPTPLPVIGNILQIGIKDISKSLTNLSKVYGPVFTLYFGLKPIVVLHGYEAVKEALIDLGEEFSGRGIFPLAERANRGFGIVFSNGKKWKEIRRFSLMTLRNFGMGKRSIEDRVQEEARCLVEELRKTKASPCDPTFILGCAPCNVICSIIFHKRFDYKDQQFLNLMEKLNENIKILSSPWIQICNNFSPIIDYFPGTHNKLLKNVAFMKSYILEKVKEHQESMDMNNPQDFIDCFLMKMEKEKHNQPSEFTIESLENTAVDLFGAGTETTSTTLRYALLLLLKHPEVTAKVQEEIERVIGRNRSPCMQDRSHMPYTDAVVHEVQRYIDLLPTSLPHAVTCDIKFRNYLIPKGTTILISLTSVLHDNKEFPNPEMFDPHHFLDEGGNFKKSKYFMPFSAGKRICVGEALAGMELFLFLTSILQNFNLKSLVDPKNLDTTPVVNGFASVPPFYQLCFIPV", "assay": "Inhibition of human recombinant CYP2C9", "type": "ADME"}, "Cytochrome P450 2D6": {"molecular_target": "Cytochrome P450 2D6 (Homo sapiens, UniProt P10635)", "sequence (P10635 whole entry)": "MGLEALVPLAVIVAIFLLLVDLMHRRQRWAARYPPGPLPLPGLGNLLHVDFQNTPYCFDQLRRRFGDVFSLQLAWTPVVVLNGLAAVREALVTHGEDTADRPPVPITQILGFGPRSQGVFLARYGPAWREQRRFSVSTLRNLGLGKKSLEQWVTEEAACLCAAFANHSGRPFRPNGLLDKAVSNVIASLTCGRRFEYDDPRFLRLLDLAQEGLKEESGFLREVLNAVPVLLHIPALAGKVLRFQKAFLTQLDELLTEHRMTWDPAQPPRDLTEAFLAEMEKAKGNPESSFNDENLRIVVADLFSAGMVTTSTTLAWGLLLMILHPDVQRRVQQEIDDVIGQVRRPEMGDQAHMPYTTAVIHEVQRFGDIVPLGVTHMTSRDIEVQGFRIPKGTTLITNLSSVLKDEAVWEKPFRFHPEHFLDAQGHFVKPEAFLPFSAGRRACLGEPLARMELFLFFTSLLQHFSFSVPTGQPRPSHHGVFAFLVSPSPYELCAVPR", "assay": "Inhibition of human recombinant CYP2D6", "type": "ADME"}, "Cytochrome P450 3A4 [8]": {"molecular_target": "T3, Cytochrome P450 3A4 (Homo sapiens, UniProt P08684)", "T3 sequence (P08684 whole entry)": "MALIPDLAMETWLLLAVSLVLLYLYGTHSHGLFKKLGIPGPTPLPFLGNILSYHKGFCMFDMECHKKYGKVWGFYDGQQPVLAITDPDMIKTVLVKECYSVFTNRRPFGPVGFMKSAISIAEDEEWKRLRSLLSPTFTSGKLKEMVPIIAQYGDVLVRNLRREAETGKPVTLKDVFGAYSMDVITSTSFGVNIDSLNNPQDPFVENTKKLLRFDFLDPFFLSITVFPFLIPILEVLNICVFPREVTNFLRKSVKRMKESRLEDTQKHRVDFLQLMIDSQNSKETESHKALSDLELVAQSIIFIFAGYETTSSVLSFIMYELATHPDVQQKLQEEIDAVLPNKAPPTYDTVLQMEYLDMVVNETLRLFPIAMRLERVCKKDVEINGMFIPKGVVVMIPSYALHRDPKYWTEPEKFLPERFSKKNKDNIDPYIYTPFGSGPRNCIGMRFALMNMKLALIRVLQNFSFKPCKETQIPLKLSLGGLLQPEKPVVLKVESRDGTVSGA", "assay": "Inhibition of human recombinant CYP3A4 using midazolam as substrate", "type": "ADME"}, "Cytochrome P450 3A4 [9]": {"molecular_target": "T3, Cytochrome P450 3A4", "assay": "Inhibition of human recombinant CYP3A4 using testosterone as substrate", "type": "ADME"}, "[10]": {"assay": "Lipophilicity, log D of compound at pH 7.4", "type": "physicochemical", "conditions": "buffer"}, "[11]": {"assay": "Unbound fraction in Sprague-Dawley rat plasma by LC-MS/MS analysis", "type": "ADME, cell-free"}, "[12]": {"assay": "Drug concentration in Sprague-Dawley rat brain by LC-MS/MS analysis", "type": "ADME, tissue-based", "conditions": "in vivo"}, "[13]": {"assay": "Unbound brain-to-plasma concentration ratio in Sprague-Dawley rat by LC-MS/MS analysis", "type": "ADME, cell-free", "conditions": "read-out: K(p,uu,brain)"}, "[14]": {"assay": "Tmax in nude mouse at 4 mg/kg, po measured for 24 hrs by LC-MS/MS analysis", "type": "ADME, organism-based", "conditions": "in vivo"}, "[15]": {"assay": "Tmax in Sprague-Dawley rat at 30 mg/kg, po measured for 24 hrs by LC-MS/MS analysis", "type": "ADME, organism-based", "conditions": "in vivo"}, "[16]": {"assay": "Tmax in Beagle dog at 20 mg/kg, po measured for 24 hrs by LC-MS/MS analysis", "type": "ADME, organism-based, Canis lupus familiaris", "conditions": "in vivo"}, "[17]": {"assay": "Cmax in Sprague-Dawley rat at 150 mg/kg, po measured for 24 hrs by LC-MS/MS analysis", "type": "ADME, organism-based", "set-up": "dose 150 mg/kg, route oral", "conditions": "in vivo"}, "[18]": {"assay": "Cmax in Beagle dog at 2 mg/kg, po measured for 24 hrs by LC-MS/MS analysis", "type": "ADME, organism-based, Canis lupus familiaris", "set-up": "dose 2 mg/kg, route oral", "conditions": "in vivo"}, "[19]": {"assay": "Cmax in Beagle dog at 20 mg/kg, po measured for 24 hrs by LC-MS/MS analysis", "type": "ADME, organism-based, Canis lupus familiaris", "set-up": "dose 20 mg/kg, route oral", "conditions": "in vivo"}, "[20]": {"assay": "AUC (0 to 24 hrs) in nude mouse at 4 mg/kg, po by LC-MS/MS analysis", "type": "ADME, organism-based", "set-up": "time < 24 hr, dose 4 mg/kg, route oral", "conditions": "in vivo"}, "[21]": {"assay": "AUC (0 to 24 hrs) in Sprague-Dawley rat at 30 mg/kg, po by LC-MS/MS analysis", "type": "ADME, organism-based", "set-up": "dose 30 mg/kg, time < 24 hr, route oral", "conditions": "in vivo"}, "[22]": {"assay": "AUC (0 to 24 hrs) in Sprague-Dawley rat at 150 mg/kg, po by LC-MS/MS analysis", "type": "ADME, organism-based", "set-up": "time < 24 hr, dose 150 mg/kg, route oral", "conditions": "in vivo"}, "[23]": {"assay": "AUC (0 to 24 hrs) in Beagle dog at 2 mg/kg, po by LC-MS/MS analysis", "type": "ADME, organism-based, Canis lupus familiaris", "set-up": "time < 24 hr, dose 2 mg/kg, route oral", "conditions": "in vivo"}, "[24]": {"assay": "Half-life in nude mouse at 4 mg/kg, po measured for 24 hrs by LC-MS/MS analysis", "type": "ADME, organism-based", "conditions": "in vivo"}, "[25]": {"assay": "Half-life in Sprague-Dawley rat at 30 mg/kg, po measured for 24 hrs by LC-MS/MS analysis", "type": "ADME, organism-based", "conditions": "in vivo"}, "[26]": {"assay": "Half-life in Beagle dog at 2 mg/kg, po measured for 24 hrs by LC-MS/MS analysis", "type": "ADME, organism-based, Canis lupus familiaris", "conditions": "in vivo"}, "[27]": {"assay": "Half-life in Beagle dog at 20 mg/kg, po measured for 24 hrs by LC-MS/MS analysis", "type": "ADME, organism-based, Canis lupus familiaris", "conditions": "in vivo"}, "[28]": {"assay": "Clearance in Beagle dog at 1 mg/kg, iv measured for 24 hrs by LC-MS/MS analysis", "type": "ADME, organism-based, Canis lupus familiaris", "conditions": "in vivo"}, "Rattus norvegicus": {"system": "Rattus norvegicus", "assay": "Anti-premature ejaculation activity in anesthetized oxytocin-induced uterine contraction Sprague-Dawley rat model assessed as decrease in intraluminal uterine pressure at 100 mg/kg, po treated for 20 mins and 1 hr later treated with oxytocin and measured for 15 to 30 mins relative to control", "type": "functional"}, "Homo sapiens [29]": {"species": "Homo sapiens", "assay": "Selectivity ratio of IC50 for human vasopressin V1A receptor expressed in HEK293 cells to IC50 for human OTR expressed in HEK293 cells", "type": "cell-based"}, "Homo sapiens [30]": {"species": "Homo sapiens", "assay": "Selectivity ratio of IC50 for human vasopressin V2 receptor expressed in HEK293 cells to IC50 for human OTR expressed in HEK293 cells", "type": "cell-based"}, "[31]": {"assay": "AUC (0 to 24 hrs) in anesthetized oxytocin-induced uterine contraction Sprague-Dawley rat model at 30 mg/kg, po", "type": "ADME, organism-based", "set-up": "dose 30 mg/kg, time < 24 hr, route oral", "conditions": "in vivo"}}}
{"compound": "COCc1nnc(N2C[C@@H]3C[C@]3(c3ccc(F)cc3Cl)C2)n1-c1ccc(OC)nc1", "values": [{"measurement": "IC50", "setting": "Oxytocin receptor", "result": 0.015, "unit": "µM"}, {"measurement": "Cmax", "setting": "[1]", "result": 350, "unit": "ng/mL"}, {"measurement": "solubility", "setting": "[2]", "result": 108, "unit": "µM"}, {"measurement": "CLhep predicted", "setting": "[3]", "result": 14.8, "unit": "mL/min/kg"}, {"measurement": "CLhep predicted", "setting": "[4]", "result": 20.3, "unit": "mL/min/kg"}, {"measurement": "IC50", "setting": "[5]", "result": 16, "unit": "µM"}, {"measurement": "Activity", "setting": "[6]", "result": "Toxic"}, {"measurement": "Activity", "setting": "[7]", "result": "Non-Toxic"}, {"measurement": "IC50", "setting": "Cytochrome P450 1A2", "result": "> 30", "unit": "µM"}, {"measurement": "IC50", "setting": "Cytochrome P450 2C9", "result": "> 30", "unit": "µM"}, {"measurement": "IC50", "setting": "Cytochrome P450 2D6", "result": "> 30", "unit": "µM"}, {"measurement": "IC50", "setting": "Cytochrome P450 3A4 [8]", "result": "> 30", "unit": "µM"}, {"measurement": "IC50", "setting": "Cytochrome P450 3A4 [9]", "result": 20, "unit": "µM"}, {"measurement": "logD", "setting": "[10]", "result": 2.86}, {"measurement": "fraction unbound", "setting": "[11]", "result": 0.0146}, {"measurement": "Ct", "setting": "[12]", "result": 229, "unit": "ng/g"}, {"measurement": "Kp uu", "setting": "[13]", "result": 0.188}, {"measurement": "Tmax", "setting": "[14]", "result": 0.5, "unit": "h"}, {"measurement": "Tmax", "setting": "[15]", "result": 0.63, "unit": "h"}, {"measurement": "Tmax", "setting": "[16]", "result": 0.88, "unit": "h"}, {"measurement": "Cmax", "setting": "[17]", "result": 14000, "unit": "ng/mL"}, {"measurement": "Cmax", "setting": "[18]", "result": 930, "unit": "ng/mL"}, {"measurement": "Cmax", "setting": "[19]", "result": 13500, "unit": "ng/mL"}, {"measurement": "AUC(0-t) at 24 h", "setting": "[20]", "result": 548, "unit": "ng·h/mL"}, {"measurement": "AUC(0-t) at 24 h", "setting": "[21]", "result": 16100, "unit": "ng·h/mL"}, {"measurement": "AUC(0-t) at 24 h", "setting": "[22]", "result": 57200, "unit": "ng·h/mL"}, {"measurement": "AUC(0-t) at 24 h", "setting": "[23]", "result": 3830, "unit": "ng·h/mL"}, {"measurement": "half-life", "setting": "[24]", "result": 1.9, "unit": "h"}, {"measurement": "half-life", "setting": "[25]", "result": 2.23, "unit": "h"}, {"measurement": "half-life", "setting": "[26]", "result": 4.64, "unit": "h"}, {"measurement": "half-life", "setting": "[27]", "result": 3.38, "unit": "h"}, {"measurement": "clearance", "setting": "[28]", "result": 7.2, "unit": "mL/min/kg"}, {"measurement": "inhibition in vivo at 100 mg/kg", "setting": "Rattus norvegicus", "result": 77.5, "unit": "%"}, {"measurement": "Ratio IC50", "setting": "Homo sapiens [29]", "result": 192}, {"measurement": "Ratio IC50", "setting": "Homo sapiens [30]", "result": 2170}, {"measurement": "AUC(0-t) at 24 h", "setting": "[31]", "result": 28300, "unit": "ng·h/mL"}]}
